Holding throughout (assay): MIC, microdilution broth method (NCCLS)
What all share (type): cell-based
On the technique in general: Dilution methods test growth across graded concentrations, often in twofold steps.

Assay [1] deals with S. pneumoniae ATCC49619. The conditions noted are these: D: S. pneumoniae ATCC49619, 35° C., 16-20 hours. Here is the method:
(§1) Minimal inhibitory concentration (MIC) has been an indicator of in vitro antibacterial activity widely used in the art. The in vitro antimicrobial activity of the compounds was determined by the microdilution broth method following the test method from the National Committee for Clinical Laboratory Standards (NCCLS). This method is described in the NCCLS Document M7-A4, Vol. 17, No. 2, “Methods for Dilution Antimicrobial Susceptibility Test for Bacteria that Grow Aerobically—Fourth Edition”, which is incorporated herein by reference.
(§2) In this method two-fold serial dilutions of drug in cation adjusted Mueller-Hinton broth are added to wells in microdilution trays. The test organisms are prepared by adjusting the turbidity of actively growing broth cultures so that the final concentration of test organism after it is added to the wells is approximately 5×10^4 CFU/well.
(§3) Following inoculation of the microdilution trays, the trays are incubated at 35° C. for 16-20 hours and then read. […] The amount of growth in the wells containing the test compound is compared with the amount of growth in the growth-control wells (no test compound) used in each tray. As set forth in Table 1, compounds of the present invention were tested against a variety of Gram positive and Gram negative pathogenic bacteria resulting in a range of activities depending on the organism tested.

Assay [2] deals with S. aureus ATCC29213. The conditions noted are these: B: S. aureus ATCC29213, 35° C., 16-20 hours. Here is the method:
as §1, §2, §3

Assay [3] relates to E. coli OC2605. The conditions noted are these: A: E. coli OC2605, 35° C., 16-20 hours. Here is the method: as §1, §2, §3
The test system of assay [4] is E. faecalis ATCC29212. The conditions noted are these: C: E. faecalis ATCC29212, 35° C., 16-20 hours. As for the experimental part:
as §1, §2, §3

Assay [5] relates to H. influenzae ATCC49247. The conditions noted are these: E: H. influenzae ATCC49247, 35° C., 16-20 hours. As for the experimental part: as §1, §2, §3

Values after ≈ are worked out from the molar mass of the structure shown.

As for `CC[C@H]1OC(=O)[C@H](C)C(=O)[C@H](C)[C@@H](O[C@@H]2O[C@H](C)C[C@H](N(C)C)[C@H]2O)[C@](C)(OC(=O)NC/C=C/c2ccc(Br)nc2)C[C@@H](C)C(=O)[C@H](C)[C@H]2NC(=O)O[C@@]21C` [Compound 72], the MIC result in assay [1] was “≦0.015 μg/mL”; in assay [2], 0.25 µg/mL (≈ 0.298 µM); in assay [3], 8 µg/mL (≈ 9.55 µM); in assay [4], 0.06 µg/mL (≈ 0.0716 µM); in assay [5], 2 µg/mL (≈ 2.39 µM).
Turning to `CC[C@H]1OC(=O)[C@H](C)C(=O)[C@H](C)[C@@H](O[C@@H]2O[C@H](C)C[C@H](N(C)C)[C@H]2O)[C@](C)(OC(=O)NCc2ccc(-c3ncccn3)cc2)C[C@@H](C)C(=O)[C@H](C)[C@H]2NC(=O)O[C@@]21C` [Compound 31], the MIC in assay [1] worked out at 0.03 µg/mL (≈ 0.037 µM); in assay [2] it was 0.25 µg/mL (≈ 0.309 µM); in assay [3] it was 16 µg/mL (≈ 19.8 µM); in assay [4] it was 0.06 µg/mL (≈ 0.0741 µM); in assay [5], 2 µg/mL (≈ 2.47 µM).
On to `CC[C@H]1OC(=O)[C@H](C)C(=O)[C@H](C)[C@@H](O[C@@H]2O[C@H](C)C[C@H](N(C)C)[C@H]2O)[C@](C)(OC(=O)NCc2ccc(-c3cccnn3)cc2)C[C@@H](C)C(=O)[C@H](C)[C@H]2NC(=O)O[C@@]21C` [Compound 97], for which the MIC in assay [1] was 0.03 µg/mL (≈ 0.037 µM); in assay [2] it was 0.5 µg/mL (≈ 0.617 µM); in assay [3] it was 16 µg/mL (≈ 19.8 µM); in assay [4], 0.06 µg/mL (≈ 0.0741 µM); in assay [5], 2 µg/mL (≈ 2.47 µM).
In the case of `CC[C@H]1OC(=O)[C@H](C)C(=O)[C@H](C)[C@@H](O[C@@H]2O[C@H](C)C[C@H](N(C)C)[C@H]2O)[C@](C)(OC(=O)NCCCc2ccc(-c3ncccn3)cc2)C[C@@H](C)C(=O)[C@H](C)[C@H]2NC(=O)O[C@@]21C` [Compound 80, Carbamic acid, [3-[4-(2-2pyrimidinyl)phenyl]propyl]-, (3aS,4R,7R,9R,10R,11R,13R,15R,15aR)-4-ethyltetradecahydro-3a,7,9,11,13,15-hexamethyl-2,6,8,14-tetraoxo-10-[[3,4,6-trideoxy-3-(dimethylamino)-b-β-xylo-hexopyranosyl]oxy]-2H-oxacyclotetradecino[4,3-d]oxazol-11-yl ester], the MIC in assay [1] is 0.03 µg/mL (≈ 0.0358 µM); in assay [2], 0.12 µg/mL (≈ 0.143 µM); in assay [3] it was over 16 µg/mL; in assay [4], 0.06 µg/mL (≈ 0.0716 µM); in assay [5], 4 µg/mL (≈ 4.77 µM).
In the case of `CC[C@H]1OC(=O)[C@H](C)C(=O)[C@H](C)[C@@H](O[C@@H]2O[C@H](C)C[C@H](N(C)C)[C@H]2O)[C@](C)(OC(=O)NC/C=C/c2ccc(-c3nccc(C)n3)cc2)C[C@@H](C)C(=O)[C@H](C)[C@H]2NC(=O)O[C@@]21C` [Compound 68], the MIC in assay [1] was 0.03 µg/mL (≈ 0.0353 µM); in assay [2], 0.25 µg/mL (≈ 0.294 µM); in assay [3] it was over 16 µg/mL; in assay [4] it was 0.12 µg/mL (≈ 0.141 µM); in assay [5] it was 4 µg/mL (≈ 4.71 µM).
For the compound `CC[C@H]1OC(=O)[C@H](C)C(=O)[C@H](C)[C@@H](O[C@@H]2O[C@H](C)C[C@H](N(C)C)[C@H]2O)[C@](C)(OC(=O)NC/C=C/c2ccc(-c3cccnc3)cc2)C[C@@H](C)C(=O)[C@H](C)[C@H]2NC(=O)O[C@@]21C` [Compound 23], the MIC in assay [1] is 0.06 µg/mL (≈ 0.0719 µM); in assay [2], 0.25 µg/mL (≈ 0.299 µM); in assay [3], 16 µg/mL (≈ 19.2 µM); in assay [4] it was 0.12 µg/mL (≈ 0.144 µM); in assay [5], 2 µg/mL (≈ 2.4 µM).
For `CC[C@H]1OC(=O)[C@H](C)C(=O)[C@H](C)[C@@H](O[C@@H]2O[C@H](C)C[C@H](N(C)C)[C@H]2O)[C@](C)(OC(=O)NCc2ccc(-n3cncn3)c(F)c2)C[C@@H](C)C(=O)[C@H](C)[C@H]2NC(=O)O[C@@]21C` [Compound 55], the MIC in assay [1] was 0.03 µg/mL (≈ 0.0367 µM); in assay [2], 0.5 µg/mL (≈ 0.612 µM); in assay [3], 16 µg/mL (≈ 19.6 µM); in assay [4], 0.12 µg/mL (≈ 0.147 µM); in assay [5] it was 4 µg/mL (≈ 4.9 µM).
In the same order, the values of `CC[C@H]1OC(=O)[C@H](C)C(=O)[C@H](C)[C@@H](O[C@@H]2O[C@H](C)C[C@H](N(C)C)[C@H]2O)[C@](C)(OC(=O)NCc2cccc(-c3ncccn3)c2)C[C@@H](C)C(=O)[C@H](C)[C@H]2NC(=O)O[C@@]21C` [Compound 65] are 0.06 µg/mL (≈ 0.0741 µM), 2 µg/mL (≈ 2.47 µM), over 16 µg/mL, 0.25 µg/mL (≈ 0.309 µM) and 8 µg/mL (≈ 9.88 µM).
For the compound `CC[C@H]1OC(=O)[C@H](C)C(=O)[C@H](C)[C@@H](O[C@@H]2O[C@H](C)C[C@H](N(C)C)[C@H]2O)[C@](C)(OC(=O)NC/C=C/c2ccc(-c3ccccn3)cc2)C[C@@H](C)C(=O)[C@H](C)[C@H]2NC(=O)O[C@@]21C` [Compound 19], the MIC in assay [1] was 0.03 µg/mL (≈ 0.0359 µM); in assay [2] it was 0.12 µg/mL (≈ 0.144 µM); in assay [3], 16 µg/mL (≈ 19.2 µM); in assay [4] it was 0.12 µg/mL (≈ 0.144 µM); in assay [5], 4 µg/mL (≈ 4.79 µM).
Take `CC[C@H]1OC(=O)[C@H](C)C(=O)[C@H](C)[C@@H](O[C@@H]2O[C@H](C)C[C@H](N(C)C)[C@H]2O)[C@](C)(OC(=O)NCCNC(=O)c2ccc(-c3ccccc3)cc2)C[C@@H](C)C(=O)[C@H](C)[C@H]2NC(=O)O[C@@]21C` [Compound 111]: the MIC in assay [1] is 0.06 µg/mL (≈ 0.0694 µM); in assay [2] it was 1 µg/mL (≈ 1.16 µM); in assay [3], over 16 µg/mL; in assay [4], 0.5 µg/mL (≈ 0.578 µM); in assay [5] it was 4 µg/mL (≈ 4.62 µM).
`CC[C@H]1OC(=O)[C@H](C)C(=O)[C@H](C)[C@@H](O[C@@H]2O[C@H](C)C[C@H](N(C)C)[C@H]2O)[C@](C)(OC(=O)NC/C=C/c2ccc(-n3cccn3)c(F)c2)C[C@@H](C)C(=O)[C@H](C)[C@H]2NC(=O)O[C@@]21C` [Compound 58]: the MIC in assay [1] is 0.06 µg/mL (≈ 0.0713 µM); in assay [2] it was 0.25 µg/mL (≈ 0.297 µM); in assay [3], over 16 µg/mL; in assay [4] it was 0.12 µg/mL (≈ 0.143 µM); in assay [5], 4 µg/mL (≈ 4.75 µM).
For `CC[C@H]1OC(=O)[C@H](C)C(=O)[C@H](C)[C@@H](O[C@@H]2O[C@H](C)C[C@H](N(C)C)[C@H]2O)[C@](C)(OC(=O)NC/C=C/c2ccc(-c3ccncc3)cc2)C[C@@H](C)C(=O)[C@H](C)[C@H]2NC(=O)O[C@@]21C` [Compound 26] the same measures were 0.03 µg/mL (≈ 0.0359 µM), 0.5 µg/mL (≈ 0.599 µM), over 16 µg/mL, 0.12 µg/mL (≈ 0.144 µM) and 2 µg/mL (≈ 2.4 µM).
In the same order, the values of `CC[C@H]1OC(=O)[C@H](C)C(=O)[C@H](C)[C@@H](O[C@@H]2O[C@H](C)C[C@H](N(C)C)[C@H]2O)[C@](C)(OC(=O)NC/C=C/c2ccc([N+](=O)[O-])cc2)C[C@@H](C)C(=O)[C@H](C)[C@H]2NC(=O)O[C@@]21C` [Compound 15] are 0.03 µg/mL (≈ 0.0374 µM), 0.12 µg/mL (≈ 0.149 µM), 4 µg/mL (≈ 4.98 µM), 0.06 µg/mL (≈ 0.0747 µM) and 2 µg/mL (≈ 2.49 µM).
For `CC[C@H]1OC(=O)[C@H](C)C(=O)[C@H](C)[C@@H](O[C@@H]2O[C@H](C)C[C@H](N(C)C)[C@H]2O)[C@](C)(OC(=O)NC/C=C/c2ccc(-n3cncn3)cc2)C[C@@H](C)C(=O)[C@H](C)[C@H]2NC(=O)O[C@@]21C` [Compound 20] the same measures were 0.03 µg/mL (≈ 0.0364 µM), 0.12 µg/mL (≈ 0.145 µM), 16 µg/mL (≈ 19.4 µM), 0.06 µg/mL (≈ 0.0727 µM) and 4 µg/mL (≈ 4.85 µM).
In the case of `CC[C@H]1OC(=O)[C@H](C)C(=O)[C@H](C)[C@@H](O[C@@H]2O[C@H](C)C[C@H](N(C)C)[C@H]2O)[C@](C)(OC(=O)NCc2ccc(-n3cccn3)cc2F)C[C@@H](C)C(=O)[C@H](C)[C@H]2NC(=O)O[C@@]21C` [Compound 73], the MIC came to 0.03 µg/mL (≈ 0.0368 µM) in assay [1]; 0.5 µg/mL (≈ 0.613 µM) in assay [2]; 16 µg/mL (≈ 19.6 µM) in assay [3]; 0.06 µg/mL (≈ 0.0735 µM) in assay [4]; 2 µg/mL (≈ 2.45 µM) in assay [5].
For the compound `CC[C@H]1OC(=O)[C@H](C)C(=O)[C@H](C)[C@@H](O[C@@H]2O[C@H](C)C[C@H](N(C)C)[C@H]2O)[C@](C)(OC(=O)NC/C=C/c2ccc(-n3cccn3)cc2)C[C@@H](C)C(=O)[C@H](C)[C@H]2NC(=O)O[C@@]21C` [Compound 18], the MIC in assay [1] was found to be 0.03 µg/mL (≈ 0.0364 µM); in assay [2], 0.25 µg/mL (≈ 0.303 µM); in assay [3] it was 16 µg/mL (≈ 19.4 µM); in assay [4] it was 0.06 µg/mL (≈ 0.0728 µM); in assay [5], 4 µg/mL (≈ 4.85 µM).
With `CCC1OC(=O)C(C)(F)C(=O)C(C)C(OC2OC(C)CC(N(C)C)C2O)C(C)(OC(=O)NCC=Cc2ccc(-n3cccn3)cc2)CC(C)C(=O)C(C)C2NC(=O)OC12C` (stereo not shown) [Compound 91], the MIC in assay [1] stood at 0.06 µg/mL (≈ 0.0713 µM); in assay [2], 0.25 µg/mL (≈ 0.297 µM); in assay [3], 16 µg/mL (≈ 19 µM); in assay [4], 0.12 µg/mL (≈ 0.143 µM); in assay [5], 4 µg/mL (≈ 4.75 µM).
